# Measured values published in paper PMC8617627, “Novel DYRK1A Inhibitor Rescues Learning and Memory Deficits in a Mouse Model of Down Syndrome” (Pharmaceuticals, 2021).
# Where two headings read alike, the source gives them in different places.
# Tests used:
# Experiment in all cases: Kinase profile (33P ATP filter binding)
# Assay type in all cases: biochemical
# Aurora A = target: T1, Aurora A (Homo sapiens, UniProt O14965); details: for remaining activity at 1 µM / remaining activity at 100 µM: read-out: Remaining protein kinase activity
# T1 sequence (O14965 1-403): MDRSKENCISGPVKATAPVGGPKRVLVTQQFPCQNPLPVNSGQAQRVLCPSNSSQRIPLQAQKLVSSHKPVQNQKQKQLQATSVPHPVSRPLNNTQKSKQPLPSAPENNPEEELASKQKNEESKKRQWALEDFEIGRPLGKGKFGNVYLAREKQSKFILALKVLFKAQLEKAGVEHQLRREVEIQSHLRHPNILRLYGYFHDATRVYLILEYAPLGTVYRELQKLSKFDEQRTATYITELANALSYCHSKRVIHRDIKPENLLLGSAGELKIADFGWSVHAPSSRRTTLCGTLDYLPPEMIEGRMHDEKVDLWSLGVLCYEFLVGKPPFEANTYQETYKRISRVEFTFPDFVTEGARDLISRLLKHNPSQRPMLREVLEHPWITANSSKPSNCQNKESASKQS
# DDR2 = target: T2, DDR2 (Homo sapiens, UniProt Q16832); details: read-out: Remaining protein kinase activity
# T2 sequence (Q16832 22-855): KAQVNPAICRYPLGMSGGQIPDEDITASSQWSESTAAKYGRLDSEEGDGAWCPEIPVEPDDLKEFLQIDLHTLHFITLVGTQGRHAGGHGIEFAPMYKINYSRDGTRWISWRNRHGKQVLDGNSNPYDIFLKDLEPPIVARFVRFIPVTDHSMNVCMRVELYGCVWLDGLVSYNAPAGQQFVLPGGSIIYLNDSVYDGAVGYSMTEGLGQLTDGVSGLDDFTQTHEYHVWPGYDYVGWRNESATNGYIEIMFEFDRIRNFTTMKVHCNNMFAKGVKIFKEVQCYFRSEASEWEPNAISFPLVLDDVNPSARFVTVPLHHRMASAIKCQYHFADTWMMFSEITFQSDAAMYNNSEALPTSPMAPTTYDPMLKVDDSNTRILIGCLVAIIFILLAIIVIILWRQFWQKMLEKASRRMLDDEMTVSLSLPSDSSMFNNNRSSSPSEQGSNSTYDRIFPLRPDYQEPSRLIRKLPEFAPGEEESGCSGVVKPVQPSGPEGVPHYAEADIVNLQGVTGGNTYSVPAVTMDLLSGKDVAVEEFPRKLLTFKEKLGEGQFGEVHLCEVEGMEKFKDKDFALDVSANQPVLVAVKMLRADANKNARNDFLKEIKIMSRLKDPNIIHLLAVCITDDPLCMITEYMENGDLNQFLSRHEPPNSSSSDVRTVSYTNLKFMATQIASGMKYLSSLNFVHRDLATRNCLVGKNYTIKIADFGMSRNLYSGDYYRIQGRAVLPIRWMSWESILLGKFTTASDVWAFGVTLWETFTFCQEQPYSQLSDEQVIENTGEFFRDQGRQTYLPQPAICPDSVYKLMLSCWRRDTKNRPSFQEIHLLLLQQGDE
# PKBb = PKBb (Homo sapiens, UniProt P31751); details: read-out: Remaining protein kinase activity
# PKD1 = target: T3, PKD1 (Homo sapiens, UniProt Q15139); details: read-out: Remaining protein kinase activity
# T3 sequence (Q15139 1-912): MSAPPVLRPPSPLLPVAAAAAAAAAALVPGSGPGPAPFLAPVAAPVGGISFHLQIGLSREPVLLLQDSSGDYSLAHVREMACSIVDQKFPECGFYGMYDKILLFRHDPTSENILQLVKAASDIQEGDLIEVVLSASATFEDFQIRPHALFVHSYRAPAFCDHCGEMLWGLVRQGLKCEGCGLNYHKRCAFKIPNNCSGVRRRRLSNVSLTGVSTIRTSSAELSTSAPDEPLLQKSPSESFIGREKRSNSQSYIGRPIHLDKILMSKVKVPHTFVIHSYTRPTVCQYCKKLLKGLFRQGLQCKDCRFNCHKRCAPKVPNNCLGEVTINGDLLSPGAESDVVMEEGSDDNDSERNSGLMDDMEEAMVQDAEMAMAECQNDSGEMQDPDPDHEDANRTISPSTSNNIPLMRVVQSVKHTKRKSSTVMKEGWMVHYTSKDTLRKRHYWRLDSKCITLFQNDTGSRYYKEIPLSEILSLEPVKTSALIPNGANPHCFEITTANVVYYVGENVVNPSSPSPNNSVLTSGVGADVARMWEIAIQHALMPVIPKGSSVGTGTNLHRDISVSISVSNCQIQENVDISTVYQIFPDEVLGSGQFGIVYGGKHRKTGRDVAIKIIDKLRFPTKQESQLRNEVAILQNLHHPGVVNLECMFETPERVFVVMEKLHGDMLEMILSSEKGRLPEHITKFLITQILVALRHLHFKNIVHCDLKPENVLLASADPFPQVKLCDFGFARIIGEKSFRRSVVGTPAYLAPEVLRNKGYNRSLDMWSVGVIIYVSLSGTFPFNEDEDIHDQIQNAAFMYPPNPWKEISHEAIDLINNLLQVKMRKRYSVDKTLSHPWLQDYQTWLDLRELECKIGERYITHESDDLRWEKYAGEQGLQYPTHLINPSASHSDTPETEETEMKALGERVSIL
# Chain of PKBb (P31751 whole entry): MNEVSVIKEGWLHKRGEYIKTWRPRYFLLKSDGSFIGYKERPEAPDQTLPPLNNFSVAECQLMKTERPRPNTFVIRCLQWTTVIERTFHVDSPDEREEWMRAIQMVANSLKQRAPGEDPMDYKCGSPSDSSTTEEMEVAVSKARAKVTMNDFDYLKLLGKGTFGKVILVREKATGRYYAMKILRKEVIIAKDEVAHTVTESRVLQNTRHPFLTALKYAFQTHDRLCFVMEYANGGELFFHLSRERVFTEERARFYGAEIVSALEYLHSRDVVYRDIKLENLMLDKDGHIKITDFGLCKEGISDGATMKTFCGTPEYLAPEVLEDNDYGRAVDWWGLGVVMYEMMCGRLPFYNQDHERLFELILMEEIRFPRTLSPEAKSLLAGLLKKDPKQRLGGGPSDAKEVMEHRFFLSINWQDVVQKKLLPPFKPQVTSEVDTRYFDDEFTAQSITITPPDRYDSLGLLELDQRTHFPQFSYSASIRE
Structure (SMILES),Effect on Aurora A (Aurora A; in words),remaining activity at 1 µM (Aurora A) [%],remaining activity at 100 µM (Aurora A) [%],remaining activity at 1 µM (DDR2) [%],remaining activity at 100 µM (DDR2) [%],remaining activity at 1 µM (PKBb) [%],remaining activity at 100 µM (PKBb) [%],remaining activity at 1 µM (PKD1) [%],remaining activity at 100 µM (PKD1) [%],"remaining activity at 1 µM (Aurora A; Aurora A, 1 μM) [%]","remaining activity at 100 µM (Aurora A; Aurora A, 100 μM) [%]","remaining activity at 1 µM (DDR2; DDR2, 1 μM) [%]","remaining activity at 100 µM (DDR2; DDR2, 100 μM) [%]","remaining activity at 1 µM (PKBb; PKBb, 1 μM) [%]","remaining activity at 100 µM (PKBb; PKBb, 100 μM) [%]","remaining activity at 1 µM (PKD1; PKD1, 1 μM) [%]","remaining activity at 100 µM (PKD1; PKD1, 100 μM) [%]"
"COc1ccc2sc(-c3cncc(NC(C)=O)c3)nc2c1 [PST-001, N-(5-(5-Methoxybenzo[d]thiazol-2-yl)pyridin-3-yl)acetamide]",moderately activated,133,136,98,80,112,98,103,92,,,,,,,,
"COc1ccc2sc(-c3cncc(N)c3)nc2c1 [compound 1, 5-(5-Methoxybenzo[d]thiazol-2-yl)pyridin-3-amine]",,,,,,,,,,132,97,107,49,123,15,94,23
